Measured values: ChEMBL document CHEMBL1142475, “1,2,3-Thiadiazole thioacetanilides as a novel class of potent HIV-1 non-nucleoside reverse transcriptase inhibitors” (Bioorg Med Chem Lett, 2008)
pEC50: −log10 of the molar value.

Key:
[1] = test system: Human immunodeficiency virus 1; assay: Antiviral activity against HIV1 3B in human MT4 cells assessed as protection of cell against virus-induced cytopathogenicity; type: functional, organism-based; conditions: Human immunodeficiency virus 1, 3B
[2] = Cytotoxicity against human MT4 cells; type: cell-based
[3] = Selectivity index, ratio of CC50 for human MT4 cells to EC50 for HIV1 3B; type: toxicity, cell-based; conditions: for selectivity ratio: MT4 cells, read-out: Ratio CC50/EC50; for Activity: mt4

Compound	pEC50 [1]	CC50 [2]	selectivity ratio [3]	Activity [3]
COC(=O)c1ccc(NC(=O)CSc2snnc2-c2ccccc2)c(Br)c1	5.29	> 269 µM	> 53	–
CC(C)Nc1cccnc1N1CCN(C(=O)c2cc3cc(NS(C)(=O)=O)ccc3[nH]2)CC1 [DELAVIRDINE]	6.49	> 3.83 µM	> 12	–
CCOC(=O)c1ccc(NC(=O)CSc2snnc2-c2ccc(Cl)cc2Cl)c(Br)c1	7.00	> 228 µM	> 2300	–
O=C(CSc1snnc1-c1ccccc1)Nc1ccccc1Br	4.65	> 308 µM	> 14	–
COc1ccc(-c2nnsc2SCC(=O)Nc2ccccc2[N+](=O)[O-])cc1	6.00	≥ 281 µM	≥ 283	–
O=C(CSc1snnc1-c1ccc(Cl)cc1Cl)Nc1ccccc1Cl	6.93	111 µM	943	–
COc1ccc(-c2nnsc2SCC(=O)Nc2ccccc2F)cc1	3.48	> 333 µM	–	Not Active
COC(=O)c1ccc(NC(=O)CSc2snnc2-c2ccc(OC)cc2)c(Br)c1	5.70	195 µM	97	–
Cc1ccc(NC(=O)CSc2snnc2-c2ccc(F)cc2F)c(Br)c1	5.84	> 274 µM	> 189	–
O=C(CSc1snnc1-c1ccc(F)cc1F)Nc1ccccc1Br	5.65	144 µM	–	–
CCOC(=O)c1ccc(NC(=O)CSc2snnc2-c2ccccc2)c(Br)c1	5.28	≥ 232 µM	≥ 45	–
O=C(CSc1snnc1-c1ccc(F)cc1F)Nc1ccccc1F	5.26	148 µM	27	–
O=C(CSc1snnc1-c1ccccc1)Nc1ccccc1F	3.44	> 362 µM	–	Not Active
O=C1Nc2ccc(Cl)cc2[C@@](C#CC2CC2)(C(F)(F)F)O1 [EFAVIRENZ]	8.36	> 6.34 µM	> 1430	–
O=C(CSc1snnc1-c1ccc(Cl)cc1Cl)Nc1ccccc1F	6.87	19.5 µM	145	–
COc1ccc(-c2nnsc2SCC(=O)Nc2ccccc2Br)cc1	5.50	> 286 µM	> 90	–

Compound	pEC50 [1]	CC50 [2]	selectivity ratio [3]	Activity [3]
Cc1cn([C@H]2C[C@H](N=[N+]=[N-])[C@@H](CO)O2)c(=O)[nH]c1=O [ZIDOVUDINE]	7.82	> 93.5 µM	> 6190	–
Cc1ccc(NC(=O)CSc2snnc2-c2ccccc2)c(Br)c1	4.86	> 297 µM	> 22	–
Cc1ccc(-n2c(C)nnc2SCC(=O)Nc2ccccc2)cc1	5.69	–	–	–
COc1ccc(-c2nnsc2SCC(=O)Nc2ccc(C)cc2Br)cc1	5.30	249 µM	49	–
O=C(CSc1snnc1-c1ccc(F)cc1F)Nc1ccccc1Cl	5.91	178 µM	146	–
Cc1ccc(NC(=O)CSc2snnc2-c2ccc(Cl)cc2Cl)c(Br)c1	6.69	> 256 µM	> 1260	–
Cc1ccnc2c1NC(=O)c1cccnc1N2C1CC1 [NEVIRAPINE]	–	> 15 µM	–	–
O=C(CSc1snnc1-c1ccccc1)Nc1ccccc1Cl	4.58	> 345 µM	> 13	–
O=C(CSc1snnc1-c1ccc(Cl)cc1Cl)Nc1ccccc1Br	6.83	≥ 147 µM	≥ 981	–
NS(=O)(=O)c1ccc(NC(=O)CSc2nnc(Br)n2-c2ccc(C3CC3)c3ccccc23)c(Cl)c1	6.85	–	–	–
O=C(CSc1snnc1-c1ccc(Cl)cc1Cl)Nc1ccccc1[N+](=O)[O-]	7.23	> 283 µM	> 4880	–
CCOC(=O)c1ccc(NC(=O)CSc2snnc2-c2ccc(OC)cc2)c(Br)c1	5.52	> 246 µM	> 82	–
O=C(CSc1snnc1-c1ccccc1)Nc1ccccc1[N+](=O)[O-]	≤ 4.27	≥ 247 µM	–	Not Active
O=C(CSc1snnc1-c1ccc(F)cc1F)Nc1ccccc1[N+](=O)[O-]	5.38	165 µM	40	–
COc1ccc(-c2nnsc2SCC(=O)Nc2ccccc2Cl)cc1	5.58	> 319 µM	> 121	–
